Experimental data published in ChEMBL document CHEMBL3774336, “Identification of spirooxindole and dibenzoxazepine motifs as potent mineralocorticoid receptor antagonists” (Bioorg Med Chem, 2016).

Legend:
[1] = target: T1, Mineralocorticoid receptor (Homo sapiens, UniProt P08235, C808S)
hERG (KCNH2) = hERG (KCNH2) (Homo sapiens, UniProt Q12809); test: Inhibition of human ERG (unknown origin) at 10 uM
Cytochrome P450 2C9 = Cytochrome P450 2C9 (Homo sapiens, UniProt P11712); test: Inhibition of CYP2C9 (unknown origin); assay type: ADME
Chain of Cytochrome P450 2C9 (P11712 whole entry): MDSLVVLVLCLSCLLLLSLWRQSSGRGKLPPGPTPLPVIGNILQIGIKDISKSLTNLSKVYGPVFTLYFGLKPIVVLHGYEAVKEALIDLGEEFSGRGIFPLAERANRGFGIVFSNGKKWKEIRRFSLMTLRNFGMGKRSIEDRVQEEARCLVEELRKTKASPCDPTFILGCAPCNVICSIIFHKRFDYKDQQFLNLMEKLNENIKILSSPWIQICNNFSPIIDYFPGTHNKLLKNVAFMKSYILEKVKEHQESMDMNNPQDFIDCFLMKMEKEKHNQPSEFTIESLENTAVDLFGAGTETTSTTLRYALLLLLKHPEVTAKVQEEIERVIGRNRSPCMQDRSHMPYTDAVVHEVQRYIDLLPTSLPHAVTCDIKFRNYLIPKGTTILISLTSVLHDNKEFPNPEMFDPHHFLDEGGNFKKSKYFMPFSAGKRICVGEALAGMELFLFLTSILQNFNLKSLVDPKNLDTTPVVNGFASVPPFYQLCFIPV

[2] = target: T2, Alpha-2A adrenergic receptor (Homo sapiens) (UniProt P08913); test: Inhibition of adrenergic alpha2A receptor (unknown origin) at 10 uM
T2 sequence (whole entry): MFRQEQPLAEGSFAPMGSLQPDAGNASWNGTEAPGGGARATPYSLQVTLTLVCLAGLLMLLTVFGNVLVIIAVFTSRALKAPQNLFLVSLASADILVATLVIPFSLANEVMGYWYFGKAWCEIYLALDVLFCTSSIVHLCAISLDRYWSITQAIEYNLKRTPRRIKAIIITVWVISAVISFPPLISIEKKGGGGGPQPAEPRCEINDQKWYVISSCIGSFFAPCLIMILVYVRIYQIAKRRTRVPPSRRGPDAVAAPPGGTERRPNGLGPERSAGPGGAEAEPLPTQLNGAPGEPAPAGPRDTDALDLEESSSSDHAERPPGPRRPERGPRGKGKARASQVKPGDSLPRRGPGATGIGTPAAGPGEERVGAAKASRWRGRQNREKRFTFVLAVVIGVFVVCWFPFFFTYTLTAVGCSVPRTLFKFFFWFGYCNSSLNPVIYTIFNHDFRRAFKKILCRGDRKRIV

[3] = target: Histamine H1 receptor (Homo sapiens) (UniProt P35367); test: Inhibition of histamine H1 receptor (unknown origin) at 10 uM
Chain of Histamine H1 receptor (Homo sapiens) (P35367 whole entry): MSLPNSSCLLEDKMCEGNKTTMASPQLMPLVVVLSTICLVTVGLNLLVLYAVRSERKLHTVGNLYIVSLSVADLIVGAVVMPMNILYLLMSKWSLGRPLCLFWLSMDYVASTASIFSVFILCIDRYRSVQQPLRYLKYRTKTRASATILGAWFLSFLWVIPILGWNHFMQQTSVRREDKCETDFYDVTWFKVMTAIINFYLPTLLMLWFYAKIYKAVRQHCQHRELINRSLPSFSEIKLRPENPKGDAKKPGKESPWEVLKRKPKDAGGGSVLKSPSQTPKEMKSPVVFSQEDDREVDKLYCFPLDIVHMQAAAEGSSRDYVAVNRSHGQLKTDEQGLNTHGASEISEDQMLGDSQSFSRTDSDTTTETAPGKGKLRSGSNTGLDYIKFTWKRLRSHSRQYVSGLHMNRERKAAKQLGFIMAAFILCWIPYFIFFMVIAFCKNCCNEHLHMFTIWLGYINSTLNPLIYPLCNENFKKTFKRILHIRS

[4] = target: 5-hydroxytryptamine receptor 2B (Homo sapiens) (UniProt P41595); test: Inhibition of serotonin 5H2B receptor (unknown origin) at 10 uM
Chain of 5-hydroxytryptamine receptor 2B (Homo sapiens) (P41595 whole entry): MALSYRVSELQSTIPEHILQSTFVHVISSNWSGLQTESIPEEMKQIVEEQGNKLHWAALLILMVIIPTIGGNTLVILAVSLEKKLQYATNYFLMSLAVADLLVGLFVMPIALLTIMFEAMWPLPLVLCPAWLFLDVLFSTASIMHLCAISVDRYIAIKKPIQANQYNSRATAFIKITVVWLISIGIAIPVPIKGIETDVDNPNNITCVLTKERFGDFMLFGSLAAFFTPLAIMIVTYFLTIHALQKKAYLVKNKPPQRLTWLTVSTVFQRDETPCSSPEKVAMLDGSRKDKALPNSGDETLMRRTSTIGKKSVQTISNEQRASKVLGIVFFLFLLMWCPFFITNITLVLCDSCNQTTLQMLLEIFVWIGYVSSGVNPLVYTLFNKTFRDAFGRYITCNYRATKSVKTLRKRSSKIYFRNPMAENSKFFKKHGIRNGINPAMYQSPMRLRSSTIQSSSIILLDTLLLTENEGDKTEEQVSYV

[5] = target: T1, Mineralocorticoid receptor; remark: listed apart in the source
Cytochrome P450 2D6 = Cytochrome P450 2D6 (Homo sapiens, UniProt P10635); test: Inhibition of CYP2D6 (unknown origin); assay type: ADME
Chain of Cytochrome P450 2D6 (P10635 whole entry): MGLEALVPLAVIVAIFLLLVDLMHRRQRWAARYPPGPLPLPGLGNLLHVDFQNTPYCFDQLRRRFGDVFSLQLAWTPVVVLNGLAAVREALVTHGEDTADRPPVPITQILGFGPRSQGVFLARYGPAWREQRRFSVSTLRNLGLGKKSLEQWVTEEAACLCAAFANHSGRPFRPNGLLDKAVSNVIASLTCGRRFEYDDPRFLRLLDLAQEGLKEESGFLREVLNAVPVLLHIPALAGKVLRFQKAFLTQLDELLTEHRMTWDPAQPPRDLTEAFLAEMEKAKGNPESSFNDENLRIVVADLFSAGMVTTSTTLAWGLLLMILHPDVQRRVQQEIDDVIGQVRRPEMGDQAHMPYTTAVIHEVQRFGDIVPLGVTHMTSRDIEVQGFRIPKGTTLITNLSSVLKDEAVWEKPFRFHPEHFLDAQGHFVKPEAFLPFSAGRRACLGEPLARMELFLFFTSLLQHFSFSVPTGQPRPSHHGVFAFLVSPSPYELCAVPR

Cytochrome P450 3A4 = Cytochrome P450 3A4 (Homo sapiens, UniProt P08684)
Chain of Cytochrome P450 3A4 (P08684 whole entry, the tested form may be a part): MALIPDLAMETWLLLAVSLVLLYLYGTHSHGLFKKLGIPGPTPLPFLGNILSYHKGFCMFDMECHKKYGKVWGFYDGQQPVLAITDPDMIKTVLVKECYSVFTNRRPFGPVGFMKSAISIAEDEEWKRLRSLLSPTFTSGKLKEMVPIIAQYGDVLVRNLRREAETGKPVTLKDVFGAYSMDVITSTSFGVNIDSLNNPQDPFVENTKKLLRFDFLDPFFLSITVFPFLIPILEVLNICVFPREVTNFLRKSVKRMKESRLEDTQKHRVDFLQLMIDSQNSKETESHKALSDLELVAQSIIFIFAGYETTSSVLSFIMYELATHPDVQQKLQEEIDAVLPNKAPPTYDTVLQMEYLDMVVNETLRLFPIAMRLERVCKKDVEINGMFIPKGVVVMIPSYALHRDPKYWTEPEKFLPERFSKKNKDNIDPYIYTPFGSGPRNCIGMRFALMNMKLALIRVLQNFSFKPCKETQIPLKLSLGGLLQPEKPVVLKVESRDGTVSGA
Description: Inhibition of CYP3A4 (unknown origin)

Glucocorticoid receptor = target: T3, Glucocorticoid receptor (Homo sapiens, UniProt P04150); test: Inhibition of GST-tagged human glucocorticoid receptor LBD domain expressed in insect cells at by Gal4-based fluorescence polarization assay
T3 sequence (P04150 whole entry): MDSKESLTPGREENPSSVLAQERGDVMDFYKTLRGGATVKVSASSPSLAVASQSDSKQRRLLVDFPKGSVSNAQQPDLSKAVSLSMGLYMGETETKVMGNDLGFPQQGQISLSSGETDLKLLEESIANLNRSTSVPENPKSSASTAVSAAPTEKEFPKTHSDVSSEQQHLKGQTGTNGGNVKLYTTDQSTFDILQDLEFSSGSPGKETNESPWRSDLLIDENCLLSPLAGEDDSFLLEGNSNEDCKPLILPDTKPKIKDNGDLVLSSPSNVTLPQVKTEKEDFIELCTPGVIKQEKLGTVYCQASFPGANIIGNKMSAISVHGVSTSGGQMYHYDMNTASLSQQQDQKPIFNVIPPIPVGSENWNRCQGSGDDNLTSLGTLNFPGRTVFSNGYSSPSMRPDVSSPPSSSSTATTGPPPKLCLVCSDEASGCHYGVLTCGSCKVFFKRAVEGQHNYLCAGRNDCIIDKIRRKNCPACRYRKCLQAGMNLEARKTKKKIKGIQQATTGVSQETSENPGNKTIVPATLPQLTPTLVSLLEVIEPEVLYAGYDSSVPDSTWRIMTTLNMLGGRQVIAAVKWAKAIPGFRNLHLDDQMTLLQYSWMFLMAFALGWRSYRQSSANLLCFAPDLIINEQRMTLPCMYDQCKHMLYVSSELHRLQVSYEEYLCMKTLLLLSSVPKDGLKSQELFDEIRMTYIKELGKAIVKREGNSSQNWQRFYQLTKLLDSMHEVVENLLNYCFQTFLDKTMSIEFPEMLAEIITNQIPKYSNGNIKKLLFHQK

[6] = Half life of compound in rat liver microsomes; assay type: ADME
Estrogen receptor = target: T4, Estrogen receptor (Homo sapiens, UniProt P03372); test: Inhibition of estrogen receptor (unknown origin) by Gal4-based luciferase assay
T4 sequence (P03372 whole entry): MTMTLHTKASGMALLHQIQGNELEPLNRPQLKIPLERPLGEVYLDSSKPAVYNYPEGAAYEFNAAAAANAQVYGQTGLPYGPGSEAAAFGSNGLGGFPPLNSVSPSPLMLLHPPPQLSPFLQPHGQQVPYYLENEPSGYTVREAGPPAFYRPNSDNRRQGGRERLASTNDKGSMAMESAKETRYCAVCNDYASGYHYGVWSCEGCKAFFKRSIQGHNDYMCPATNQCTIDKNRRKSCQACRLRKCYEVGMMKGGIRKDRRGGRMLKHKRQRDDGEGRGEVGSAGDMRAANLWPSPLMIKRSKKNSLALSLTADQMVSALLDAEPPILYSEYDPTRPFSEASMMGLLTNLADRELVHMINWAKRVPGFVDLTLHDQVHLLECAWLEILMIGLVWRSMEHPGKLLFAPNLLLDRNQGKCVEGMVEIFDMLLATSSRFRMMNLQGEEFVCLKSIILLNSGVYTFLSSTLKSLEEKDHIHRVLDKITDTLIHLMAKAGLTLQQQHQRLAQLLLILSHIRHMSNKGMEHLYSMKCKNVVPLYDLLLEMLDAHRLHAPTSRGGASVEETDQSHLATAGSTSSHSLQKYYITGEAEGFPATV

Progesterone receptor = target: T5, Progesterone receptor (Homo sapiens, UniProt P06401); test: Inhibition of GST-tagged human progesterone receptor LBD domain expressed in insect cells by Gal4-based fluorescence polarization assay
T5 sequence (P06401 whole entry): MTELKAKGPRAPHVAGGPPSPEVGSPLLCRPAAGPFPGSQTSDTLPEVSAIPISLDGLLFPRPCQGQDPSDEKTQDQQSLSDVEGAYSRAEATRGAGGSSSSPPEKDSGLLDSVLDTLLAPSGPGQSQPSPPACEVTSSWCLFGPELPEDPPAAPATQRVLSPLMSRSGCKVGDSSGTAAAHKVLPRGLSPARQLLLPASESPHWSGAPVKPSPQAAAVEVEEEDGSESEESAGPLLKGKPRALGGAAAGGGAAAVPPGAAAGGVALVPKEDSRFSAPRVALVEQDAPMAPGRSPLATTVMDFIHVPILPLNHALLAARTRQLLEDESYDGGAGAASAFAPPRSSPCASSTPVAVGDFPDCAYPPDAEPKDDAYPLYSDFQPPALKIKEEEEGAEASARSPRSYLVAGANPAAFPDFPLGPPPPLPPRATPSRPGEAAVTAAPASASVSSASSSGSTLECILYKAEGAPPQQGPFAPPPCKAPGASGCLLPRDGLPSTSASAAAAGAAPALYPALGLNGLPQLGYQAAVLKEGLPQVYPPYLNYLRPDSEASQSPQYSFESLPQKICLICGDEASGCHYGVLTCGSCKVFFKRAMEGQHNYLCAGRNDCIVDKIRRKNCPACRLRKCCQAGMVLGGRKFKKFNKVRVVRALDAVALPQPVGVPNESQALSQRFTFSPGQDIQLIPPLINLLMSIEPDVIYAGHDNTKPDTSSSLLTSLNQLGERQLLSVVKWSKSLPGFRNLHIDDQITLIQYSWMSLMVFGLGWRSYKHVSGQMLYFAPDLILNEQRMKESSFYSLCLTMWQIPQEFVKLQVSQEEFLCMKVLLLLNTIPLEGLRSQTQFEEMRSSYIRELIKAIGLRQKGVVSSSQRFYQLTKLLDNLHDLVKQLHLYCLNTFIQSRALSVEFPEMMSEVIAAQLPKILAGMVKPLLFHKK

T1 sequence (P08235 whole entry C808S): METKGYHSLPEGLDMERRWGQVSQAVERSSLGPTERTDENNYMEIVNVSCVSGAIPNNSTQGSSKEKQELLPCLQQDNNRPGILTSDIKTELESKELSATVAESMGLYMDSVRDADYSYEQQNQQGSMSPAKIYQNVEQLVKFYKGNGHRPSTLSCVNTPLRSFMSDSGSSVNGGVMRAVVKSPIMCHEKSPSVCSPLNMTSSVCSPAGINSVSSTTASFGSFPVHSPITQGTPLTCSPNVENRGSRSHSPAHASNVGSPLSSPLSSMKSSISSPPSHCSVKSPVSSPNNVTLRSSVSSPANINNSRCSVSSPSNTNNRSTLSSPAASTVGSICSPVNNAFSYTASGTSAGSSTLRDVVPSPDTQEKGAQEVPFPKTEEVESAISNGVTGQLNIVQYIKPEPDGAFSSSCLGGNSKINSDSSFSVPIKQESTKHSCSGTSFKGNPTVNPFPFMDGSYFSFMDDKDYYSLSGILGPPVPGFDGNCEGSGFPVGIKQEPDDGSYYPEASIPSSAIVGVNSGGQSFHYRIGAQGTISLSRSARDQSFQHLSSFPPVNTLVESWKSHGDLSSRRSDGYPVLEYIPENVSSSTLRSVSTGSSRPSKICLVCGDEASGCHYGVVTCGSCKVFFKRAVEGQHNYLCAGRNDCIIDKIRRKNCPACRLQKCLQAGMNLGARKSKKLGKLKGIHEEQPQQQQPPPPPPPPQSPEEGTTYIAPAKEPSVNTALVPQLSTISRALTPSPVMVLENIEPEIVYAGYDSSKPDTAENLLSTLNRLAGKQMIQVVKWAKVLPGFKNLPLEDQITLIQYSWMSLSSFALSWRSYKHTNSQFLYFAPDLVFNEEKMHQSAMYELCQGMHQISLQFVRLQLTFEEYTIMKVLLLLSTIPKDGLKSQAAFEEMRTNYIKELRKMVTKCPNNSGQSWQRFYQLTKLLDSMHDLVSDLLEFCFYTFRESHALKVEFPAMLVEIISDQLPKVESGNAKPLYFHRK
Chain of hERG (KCNH2) (Q12809 whole entry): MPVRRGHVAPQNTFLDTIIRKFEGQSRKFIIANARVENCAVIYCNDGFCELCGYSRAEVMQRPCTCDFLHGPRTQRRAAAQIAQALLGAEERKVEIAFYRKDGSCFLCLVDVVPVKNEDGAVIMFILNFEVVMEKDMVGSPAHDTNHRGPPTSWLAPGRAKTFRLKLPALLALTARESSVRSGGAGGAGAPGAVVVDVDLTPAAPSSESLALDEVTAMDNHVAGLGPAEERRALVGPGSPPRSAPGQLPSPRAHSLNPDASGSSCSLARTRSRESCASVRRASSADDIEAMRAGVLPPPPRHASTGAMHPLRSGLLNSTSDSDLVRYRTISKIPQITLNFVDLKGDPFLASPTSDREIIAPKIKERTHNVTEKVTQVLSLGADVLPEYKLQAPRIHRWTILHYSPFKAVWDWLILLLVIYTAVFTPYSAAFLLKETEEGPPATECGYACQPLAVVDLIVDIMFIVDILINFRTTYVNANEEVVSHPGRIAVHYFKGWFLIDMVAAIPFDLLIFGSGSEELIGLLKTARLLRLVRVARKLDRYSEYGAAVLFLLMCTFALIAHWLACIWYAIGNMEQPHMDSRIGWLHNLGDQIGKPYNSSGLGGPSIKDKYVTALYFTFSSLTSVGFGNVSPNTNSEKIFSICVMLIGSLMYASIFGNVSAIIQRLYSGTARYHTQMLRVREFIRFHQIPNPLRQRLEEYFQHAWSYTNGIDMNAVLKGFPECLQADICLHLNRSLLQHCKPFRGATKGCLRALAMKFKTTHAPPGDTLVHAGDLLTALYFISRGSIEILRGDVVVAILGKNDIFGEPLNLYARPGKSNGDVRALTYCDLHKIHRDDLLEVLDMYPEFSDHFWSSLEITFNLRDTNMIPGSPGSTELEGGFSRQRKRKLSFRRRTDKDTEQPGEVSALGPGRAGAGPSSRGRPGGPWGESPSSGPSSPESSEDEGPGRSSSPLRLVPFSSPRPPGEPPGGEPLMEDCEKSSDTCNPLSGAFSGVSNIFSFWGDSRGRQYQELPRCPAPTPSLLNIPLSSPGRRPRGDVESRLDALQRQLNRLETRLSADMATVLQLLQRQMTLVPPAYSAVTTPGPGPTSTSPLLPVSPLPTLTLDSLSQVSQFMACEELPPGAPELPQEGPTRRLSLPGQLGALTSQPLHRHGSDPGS

Compound	IC50 [1]	inhibition at 10 µM (hERG (KCNH2))	IC50 (Cytochrome P450 2C9)	inhibition [2]	inhibition [3]	inhibition [4]	Ki [5]	IC50 (Cytochrome P450 2D6)	IC50 (Cytochrome P450 3A4)	IC50 (Glucocorticoid receptor)	half-life [6]	IC50 (Estrogen receptor)	IC50 (Progesterone receptor)
O=C1COc2ccc(S(=O)(=O)N3c4ccccc4COc4cc(F)ccc43)cc2N1	56 nM	28%	1560 nM	24%	1%	34%	129 nM	21300 nM					
O=C1Nc2cc(CN3c4ccccc4COc4cc(F)ccc43)ccc2C12CCNCC2	2990 nM						1080 nM						
O=C1COc2ccc(C#Cc3ccc(F)cc3F)cc2N1	772 nM						144 nM						
C[N+]1([O-])CCC2(CC1)C(=O)Nc1cc(/C=C3\c4ccccc4COc4cc(F)ccc43)ccc12 (configuration not stated)	44 nM	55%	17000 nM	60%	65%	66%	19 nM	> 30000 nM	26100 nM	> 37000 nM	> 60 min	> 37000 nM	> 37000 nM
O=C1COc2ccc(CCc3ccc(F)cc3F)cc2N1	103 nM						20 nM						
OC1CCc2c(/C=C3\c4ccccc4COc4cc(F)ccc43)cccc21 (configuration not stated)	318 nM						14 nM						
O=c1[nH]c2cc(/C=C3\c4ccccc4COc4cc(F)ccc43)ccc2n1[C@@H]1C[C@@H]2COCCN2C1	23 nM	62%	1600 nM	76%	49%	62%	9 nM	> 30000 nM	5810 nM	> 25000 nM	34 min	> 25000 nM	> 25000 nM
O=S1(=O)Cc2ccc(/C=C3\c4ccccc4COc4cc(F)ccc43)cc2N1	2550 nM						694 nM						
CN(Cc1ccc2c(c1)NC(=O)CO2)c1ccc(F)cc1F	306 nM						230 nM						
O=C1COc2ccc(/C=C\c3ccc(F)cc3F)cc2N1	1510 nM						258 nM						
CC1(C)OC(=S)Nc2ccc(S(=O)(=O)N3c4ccccc4COc4cc(F)ccc43)cc21	21 nM	48%	397 nM	85%	33%	71%	6 nM	4100 nM	363 nM	651 nM	> 60 min	> 2000 nM	> 2000 nM
O=C(c1ccc2c(c1)NC(=O)C21CCNCC1)N1c2ccccc2COc2cc(F)ccc21	4930 nM						1090 nM						
O=C1COc2ccc(N(Cc3cccnc3)c3ccc(F)cc3)cc2N1	1510 nM						1450 nM						
O=C1COc2ccc(CN3c4ccccc4COc4cc(F)ccc43)cc2N1	176 nM	29%	649 nM	72%	47%	94%	31 nM	16400 nM	5540 nM				
O=C1CCc2c(/C=C3\c4ccccc4COc4cc(F)ccc43)cccc21	148 nM						13 nM						
O=C1COc2ccc(/C=C/c3ccc(F)cc3F)cc2N1	2300 nM						162 nM						
O=C1COc2ccc(S(=O)(=O)N(Cc3cccnc3)c3ccc(F)cc3)cc2N1	> 10 nM						> 10 nM						
O=C1Nc2cc(S(=O)(=O)N3c4ccccc4COc4cc(F)ccc43)ccc2C12CCNCC2	5220 nM						5490 nM						
O=C1COc2ccc(/C=C(\c3ccccc3)c3ccc(F)cc3F)cc2N1	1570 nM						55 nM						
O=C1COc2ccc(COc3ccc(F)cc3F)cc2N1	1800 nM						980 nM						
O=C(O)CCN1CCC2(CC1)C(=O)Nc1cc(/C=C3\c4ccccc4COc4cc(F)ccc43)ccc12	29 nM	32%	12600 nM	75%	60%	36%	16 nM	29900 nM	26000 nM	> 12000 nM	> 60 min	> 12000 nM	> 12000 nM
CN(C)CC(=O)N1CCC2(CC1)C(=O)Nc1cc(/C=C3\c4ccccc4COc4cc(F)ccc43)ccc12	6 nM	98%	3260 nM	88%	77%	79%	6 nM	7750 nM	4780 nM	> 5000 nM	53 min	> 40000 nM	> 5000 nM
